Measurements from US5130253A, “DNAs Encoding mosquito oostatic hormones” (University of Florida, priority 1991, dated 1992).
Where no end group is shown, it is not given here.

Key:
[1] = system: Aedes aegypti; experiment: Inhibition of egg (ovarian) development after injection into blood-fed females; format: in vivo; conditions: for Inhibition of egg development / Yolk length: 24 hours; for Effect compared with natural, purified oostatic hormone: injection
Description: (§1) Female insects were injected with 0.5 μl to 1.0 μl hormone solution
(§2) of analog 1 or saline and analyzed 24 hours later for egg development.
(§3) The insects were evaluated for the effect of oostatic hormone 24 hours after injecting the hormone by dissecting out the ovaries and measuring the yolk in each follicle, or by dissecting out the midgut and determining trypsin biosynthesis as was described by Borovsky, D. (1988), Arch. Insect Biochem. Physiol. 8:249-260. We believe that we have discovered an effective method that can interfere with the biosynthesis of serine esterases (trypsinlike or chymotrypsinlike enzymes) in the midgut of insects.
(§4) (a) Female Aedes aegypti were fed blood on a chicken, lightly anesthetized with ether, and immediately injected with different concentrations (1 to 5 μg; 0.25 to 0.5 μl) of synthetic analogs of oostatic hormone (1 and 2). […] Twenty-four hours after the injection of oostatic hormone analogs, or water as a control, egg development and trypsinlike enzyme biosynthesis was determined (Borovsky, D. (1988), Arch, Ins. Biochem. Physiol. 7:187-210). (See Table 2)
Groups of female Aedes aegypti were injected with 0.5 to 0.25 μl of
oostatic hormone analogs, or with 0.5 μl of water as control.

[2] = system: Aedes aegypti; experiment: Toxicity (mortality) of injected mosquitoes; format: in vivo; conditions: 1 to 5 μg injected in 0.25 to 0.5 μl
Description: as §4

[3] = system: houseflies; experiment: Topical application in DMSO; format: in vivo; conditions: 10 to 20 μg topically in 1 to 10 μl of DMSO; 24 hours after treatment
Description: (§5) (b) Another procedure was to dissolve oostatic hormone analogs (1) or (2) in a solvent that might facilitate transport through the cuticular barrier into hemolymph. Dimethylsulfoxide was used and 10 to 20 μg of (1) or (2) was applied topically to houseflies and stableflies in 1 to 10 μl of DMSO.

[4] = system: stableflies; experiment: Topical application in DMSO; format: in vivo; conditions: 10 to 20 μg topically in 1 to 10 μl of DMSO; 24 hours after treatment
Description: as §5

[5] = system: trypsinlike enzymes biosynthesis; experiment: Inhibition of trypsin synthesis after injection; format: in vivo, Lutzomyia anthophora; conditions: 0.477 nmol injected; 24 hours later
Description: as §1, §2, §3

[6] = format: in vitro ADME, mosquito
From the text: The structure of these peptides render them undigestible with known endopeptidases (i.e. proteolytic enzymes like trypsin, pronase, etc.). The peptides were not affected by 1% trifluoroacetic acid and were routinely purified using this acid on HPLC. DNA sequences encoding the peptides of the invention can be used as probes to locate the genes expressing these peptides.

[7] = system: Anopheles albimanus; experiment: Inhibition of ovarian development after injection; format: in vivo; conditions: 1.83 nmol injected; 24 hours later
Description: as §1, §2, §3

[8] = system: Culex quinquefasciatus; experiment: Inhibition of ovarian development after injection; format: in vivo; conditions: 3.6 nmol injected; 24 hours later
Description: as §1, §2, §3

[9] = system: Lutzomyia anthophora; experiment: Inhibition of ovarian development after injection; format: in vivo; conditions: 0.477 nmol injected; 24 hours later
Description: as §1, §2, §3

[10] = system: trypsinlike enzymes biosynthesis; experiment: Inhibition of trypsin synthesis after injection; format: in vivo, Stomoxys calcitrans; conditions: 4.77 nmol injected; 24 hours later
Description: as §1, §2, §3

[11] = system: trypsinlike enzymes biosynthesis; experiment: Inhibition of trypsin synthesis after injection; format: in vivo, Ctenocephalides felis (bouche); conditions: 0.477 nmol injected; 24 hours later
Description: as §1, §2, §3

[12] = system: trypsinlike enzymes biosynthesis; experiment: Inhibition of trypsinlike enzyme biosynthesis in the midgut after injection; format: in vivo, Aedes aegypti; conditions: 2.86 nmol injected; 24 hours later
Description: as §1, §2, §3, §4

[13] = system: trypsinlike enzymes biosynthesis; experiment: Inhibition of trypsin synthesis after injection; format: in vivo, Musca domestica; conditions: 4.77 nmol injected; 24 hours later
Description: as §1, §2, §3

DYPAPPPPPP [analog 2, H2 NDYPAP6 COOH]
Inhibition of egg development ([1]; 0.96 μg (0.92 nmol) injected): 62% | Yolk length ([1]; 0.96 μg (0.92 nmol) injected): 102 ± 11 μm | Inhibition of egg development ([1]; 1.92 μg (1.83 nmol) injected): 96% | Yolk length ([1]; 1.92 μg (1.83 nmol) injected): 55 ± 11 μm | Effect compared with natural, purified oostatic hormone [1]: same effect as injection of natural, purified oostatic hormone | Toxicity: death of injected mosquitoes [2]: none of the injected mosquitoes died | Activity (sterilization through inhibition of trypsin-like enzyme synthesis) [3]: Some evidence of activity | Activity (sterilization through inhibition of trypsin-like enzyme synthesis) [4]: Some evidence of activity

YDPAPPPPPP [analog 1, H2 NYDPAP6 COOH]
Inhibition of trypsin synthesis [5]: 30% | Loss of activity on standing in mosquito homogenate [6]: without loss of activity | Inhibition of ovarian development [7]: 100% | Inhibition of ovarian development [8]: 91% | Inhibition of ovarian development [9]: 50% | Inhibition of ovarian development ([1]; 2.86 nmol injected, analyzed 24 hours later): 98% | Inhibition of egg development ([1]; 1.20 μg (1.15 nmol) injected): 76% | Yolk length ([1]; 1.20 μg (1.15 nmol) injected): 82 ± 3 μm | Inhibition of egg development ([1]; 2.44 μg (2.33 nmol) injected): 98% | Yolk length ([1]; 2.44 μg (2.33 nmol) injected): 53 ± 3 μm | Effect compared with natural, purified oostatic hormone [1]: same effect as injection of natural, purified oostatic hormone | Toxicity: death of injected mosquitoes [2]: none of the injected mosquitoes died | Inhibition of trypsin synthesis [10]: 50% | Inhibition of trypsin synthesis [11]: 50% | Inhibition of trypsin synthesis [12]: 86% | Activity (sterilization through inhibition of trypsin-like enzyme synthesis) [3]: Some evidence of activity | Activity (sterilization through inhibition of trypsin-like enzyme synthesis) [4]: Some evidence of activity | Inhibition of trypsin synthesis [13]: 85%
